Drawing on patent US7208512B2, “Benzodifuranimidazoline and benzofuranimidazoline derivatives and their use for the treatment of glaucoma” (Alcon, Inc., priority 2001, dated 2007), this text covers IC50 and EC50 for one compound.

Structures are written as SMILES.

A word on the IC50: it is the point on the concentration scale where inhibition reaches its midpoint. A high value points to weaker potency. For orientation: EC50 means the midpoint of the concentration-response curve. The low end stands for greater potency, the high end for weaker potency.

In assay [1] the target is T1, 5-HT2 receptor (Rattus norvegicus, UniProt P14842). The experiment in a line: 5-HT2 receptor binding assay ([125I]DOI competition, rat cerebral cortex homogenates). How it is done: Aliquots of post mortem rat cerebral cortex homogenates (400 μl) dispersed in 50 mM TrisHCl buffer (pH 7.4) are incubated with [^125I]DOI (80 pM final) in the absence or presence of methiothepin (10 μM final) to define total and non-specific binding, respectively, in a total volume of 0.5 ml. The assay mixture is incubated for 1 hour at 23° C. in polypropylene tubes and the assays terminated by rapid vacuum filtration over Whatman GF/B glass fiber filters previously soaked in 0.3% polyethyleneimine using ice-cold buffer. Test compounds (at different concentrations) are substituted for methiothepin. Filter-bound radioactivity is determined by scintillation spectrometry on a beta counter. The data are analyzed using a non-linear, iterative curve-fitting computer program (Bowen et al. 1995) to determine the compound affinity parameter.
T1 sequence (P14842 whole entry): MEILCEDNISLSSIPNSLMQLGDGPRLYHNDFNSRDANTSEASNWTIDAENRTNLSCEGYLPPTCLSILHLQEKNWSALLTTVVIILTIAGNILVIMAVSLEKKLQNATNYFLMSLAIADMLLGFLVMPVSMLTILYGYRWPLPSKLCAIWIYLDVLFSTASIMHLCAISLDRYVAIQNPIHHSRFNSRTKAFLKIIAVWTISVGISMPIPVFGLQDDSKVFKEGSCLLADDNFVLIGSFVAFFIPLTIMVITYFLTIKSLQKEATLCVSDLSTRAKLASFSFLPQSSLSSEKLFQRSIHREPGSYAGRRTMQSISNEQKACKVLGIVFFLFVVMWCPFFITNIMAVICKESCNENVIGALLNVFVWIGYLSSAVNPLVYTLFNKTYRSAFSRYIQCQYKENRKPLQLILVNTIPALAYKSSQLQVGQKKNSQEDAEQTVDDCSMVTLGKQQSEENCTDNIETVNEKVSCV

In assay [2] the target is T1, 5-HT2 receptor. The experiment in a line: 5-HT2 functional assay: phosphoinositide (PI) turnover in A7r5 rat vascular smooth muscle cells. The format is cell-based. More on the design: A7r5 rat vascular smooth muscle cells; endogenous in cells; host or cells: A7r5 rat vascular smooth muscle cells. The note with it: [3H]-IPs production in A7r5 cells. How it is done: The relative agonist activity of serotonergic compounds at the 5-HT2 receptor can be determined in vitro using the ability of the compounds to stimulate the production of [^3H]inositol phosphates in [^3H]myo-inositol-labeled A7r5 rat vascular smooth muscle cells by their ability to activate the enzyme phospholipase C. These cells are grown in culture plates, maintained in a humidified atmosphere of 5% CO2 and 95% air and fed semi-weekly with Dulbecco's modified Eagle medium (DMEM) containing 4.5 g/l glucose and supplemented with 2 mM glutamine, 10 μg/ml gentamicin, and 10% fetal bovine serum. […] Confluent cells are exposed for 24–30 hrs to 1.5 μCi [^3H]-myo-inositol (18.3 Ci/mmol) in 0.5 ml of serum-free medium. Cells are then rinsed once with DMEM/F-12 containing 10 mM LiCl prior to incubation with the test agent (or solvent as the control) in 1.0 ml of the same medium for 1 hr at 37° C., after which the medium is aspirated and 1 ml of cold 0.1 M formic acid added to stop the reaction. […] The eluate (4 ml) is collected, mixed with 15 ml scintillation fluid, and the total [^3H]-IPs determined by scintillation counting on a beta-counter. Concentration-response data are analyzed by the sigmoidal fit function of the Origin Scientific Graphics software (Microcal Software, Northampton, Mass.) to determine agonist potency (EC50 value) and efficacy (Emax). […]

`COc1cc(C[C@@H](C)N)c(OC)cc1I` [(R)-DOI, reference compound]: in assay [1], the IC50 came to 0.46 nM. Moreover, in assay [2], the EC50 is 277 nM.
